IC50 data for 11 compounds are collected here from patent US20250163104A1, “MACROCYCLIC IMMUNOMODULATORS” (priority 2021, published 2025).

By IC50 is commonly meant the concentration at which inhibition is half-maximal.

This assay concerns the target T1, human PD-1 / PD-L1-Ig binding on Jurkat cell line over-expressing human PD-1 (Jurkat-PD-1) (Homo sapiens, UniProt Q15116).
T1 construct: expressed in transfected cells; host or cells: Jurkat
In words: Jurkat-PD-1 Cell Binding High-Content Screening Assay (CBA). It is filed as cell-based. The procedure, abridged:
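Compounds were preincubated with Jurkat-hPD-1 cells in DMEM plus 10% fetal calf serum for 2 h at 37° C. Phycoerythrin-labeled PD-L1-Ig (20 nM final) was then added for 1 hour. Cells were fixed in 4% paraformaldehyde with Hoechst 33342, and bound fluorescence was quantified by high-content imaging.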

Setting [1] is: Jurkat-PD-1 cells, PE-labeled PD-L1-Ig 20 nM final; read-out: Jurkat HPD1_PDL1 IC50.

Read-outs that look alike come from different tables or passages of the source. Where a SMILES comes first, the peptide text is derived from it. Bridges are numbered along the chain shown (N, C = ends). [ ]: non-standard residue; d: D form. The star is where a group is joined. ξ: configuration not given here. Bip = N[C@@H](Cc1ccc(-c2ccccc2)cc1)C(=O)O; Phe(3-Me) = Cc1cccc(C[C@H](N)C(=O)O)c1; 4Pal = N[C@@H](Cc1ccncc1)C(=O)O; Cha = N[C@@H](CC1CCCCC1)C(=O)O; Cit = NC(=O)NCCC[C@H](N)C(=O)O; Thr(3ξ) = CC(O)[C@H](N)C(=O)O; dNle = CCCC[C@@H](N)C(=O)O; Carboxymethyl = O=C(O)C*; Orn = NCCC[C@H](N)C(=O)O; Dab = NCC[C@H](N)C(=O)O; Dap = NC[C@H](N)C(=O)O

T1 sequence (Q15116 25-288): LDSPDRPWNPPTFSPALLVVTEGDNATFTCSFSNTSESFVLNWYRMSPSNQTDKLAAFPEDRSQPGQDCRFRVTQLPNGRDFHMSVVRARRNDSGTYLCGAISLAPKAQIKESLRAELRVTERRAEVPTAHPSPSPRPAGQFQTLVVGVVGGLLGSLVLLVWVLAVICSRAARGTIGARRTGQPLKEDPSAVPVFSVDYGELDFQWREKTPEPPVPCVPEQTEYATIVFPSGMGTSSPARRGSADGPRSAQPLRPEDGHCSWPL

Take `CC[C@H](C)[C@@H]1NC(=O)[C@H](Cc2ccc(-c3ccccc3)cc2)NC(=O)[C@H](C(C)C)NC(=O)[C@H](Cc2c[nH]c3ccccc23)NC(=O)[C@H](CC(=O)O)NC(=O)[C@H](Cc2ccc(O)cc2)NC(=O)[C@H](CC(N)=O)NC(=O)CSC[C@@H](C(=O)N[C@@H](C)C(N)=O)NC(=O)[C@H]([C@@H](C)O)NC(=O)[C@H](C(C)C)NC(=O)[C@H](CC(C)C)NC(=O)[C@H](CCCCN)NC(=O)[C@@H](CC(C)C)NC(=O)[C@H](CCCN)NC1=O` [Compound 1129] ({CH2CO}-NYDWV[Bip]I[Orn][dL]KLVTCA-NH2; thioether N-14): under setting [1], the concentration for half-maximal inhibition (IC50) worked out at 19.7 nM.
For `CCC(C)[C@@H]1NC(=O)[C@H](Cc2ccc(-c3ccccc3)cc2)NC(=O)[C@H](C(C)C)NC(=O)[C@H](Cc2cccc(C)c2)NC(=O)[C@H](CC(=O)O)NC(=O)[C@H](Cc2ccc(C(=O)O)cc2)NC(=O)[C@H](Cc2ccncc2)NC(=O)CSC[C@@H](C(=O)N[C@@H](CCN)C(N)=O)NC(=O)[C@H]([C@@H](C)O)NC(=O)[C@H](C(C)C)NC(=O)[C@H](CC2CCCCC2)NC(=O)[C@H](CCN)NC(=O)[C@@H](CC(C)C)NC(=O)[C@H](CCCN)NC1=O` (some centres unmarked) [Compound 2301], the IC50 under setting [1] turned out to be 14.8 nM.
`CC(=O)NCC[C@@H]1NC(=O)[C@H](Cc2ccc(-c3ccccc3)cc2)NC(=O)[C@H](C(C)C)NC(=O)[C@H](Cc2c[nH]c3ccccc23)NC(=O)[C@H](CC(=O)O)NC(=O)[C@H](Cc2ccc(OCC(=O)O)cc2)NC(=O)[C@H](C(C)O)NC(=O)CSC[C@@H](C(N)=O)NC(=O)[C@H](C(C)O)NC(=O)[C@H](C(C)C)NC(=O)[C@H](CC2CCCCC2)NC(=O)[C@H](CCN)NC(=O)[C@@H](CC(C)C)NC(=O)[C@H](CCCN)NC1=O` (stereo partly drawn) [Compound 2606] ({CH2CO}-[Thr(3ξ)]Y(Carboxymethyl)DWV[Bip][Dab](Ac)[Orn][dL][Dab][Cha]V[Thr(3ξ)]C-NH2; thioether N-14): the 50% inhibitory concentration (IC50) (read-out: Jurkat HPD1_PDL1 IC50; Jurkat-PD-1 cells, PE-labeled PD-L1-Ig 20 nM final) worked out at 76.4 nM.
Take `Cc1cccc(C[C@@H]2NC(=O)[C@H](CC(=O)O)NC(=O)[C@H](Cc3ccc(OCC(=O)O)cc3)NC(=O)[C@H](CCCNC(=N)N)NC(=O)CSC[C@@H](C(N)=O)NC(=O)[C@H]([C@@H](C)O)NC(=O)[C@H](C(C)C)NC(=O)[C@H](CC3CCCCC3)NC(=O)[C@H](CCN)NC(=O)[C@@H](CC(C)C)NC(=O)[C@H](CCCN)NC(=O)[C@H](Cc3ccc(OCC(=O)O)cc3)NC(=O)[C@H](Cc3ccc(-c4ccccc4)cc3)NC(=O)[C@H](Cc3ccc(O)cc3)NC2=O)c1` [Compound 2056] ({CH2CO}-RY(Carboxymethyl)D[Phe(3-Me)]Y[Bip]Y(Carboxymethyl)[Orn][dL][Dab][Cha]VTC-NH2; thioether N-14): the 50% inhibitory concentration (IC50) under setting [1] was 27.5 nM.
Regarding `Cc1cccc(C[C@@H]2NC(=O)[C@H](CC(=O)O)NC(=O)[C@H](Cc3ccc(OCC(=O)O)cc3)NC(=O)[C@H](CN)NC(=O)CSC[C@@H](C(=O)N[C@@H](C)C(=O)N[C@@H](CCC(=O)O)C(N)=O)NC(=O)[C@H]([C@@H](C)O)NC(=O)[C@H](C(C)C)NC(=O)[C@H](CC3CCCCC3)NC(=O)[C@H](CCN)NC(=O)[C@@H](CC(C)C)NC(=O)[C@H](CCCN)NC(=O)[C@H](CCCNC(N)=O)NC(=O)[C@H](Cc3ccc(-c4ccccc4)cc3)NC(=O)[C@H](C(C)C)NC2=O)c1` [Compound 1297] ({CH2CO}-[Dap]Y(Carboxymethyl)D[Phe(3-Me)]V[Bip][Cit][Orn][dL][Dab][Cha]VTCAE-NH2; thioether N-14), the half-inhibitory concentration (IC50) under setting [1] was 9.4 nM.
Still for that read-out and setting: in the case of `CC(C)C[C@@H]1NC(=O)[C@H](Cc2c[nH]c3ccccc23)NC(=O)[C@H](CC(=O)O)NC(=O)[C@H](Cc2ccc(O)cc2)NC(=O)[C@H](Cc2ccccc2)NC(=O)CSC[C@@H](C(=O)NCC(N)=O)NC(=O)[C@H](CO)NC(=O)[C@H](C(C)C)NC(=O)[C@H](CC2CCCCC2)NC(=O)[C@H](CC(N)=O)NC(=O)[C@@H](CC(C)C)NC(=O)[C@H](CCCN)NC(=O)[C@H](C(C)C)NC(=O)[C@H](Cc2ccc(-c3ccccc3)cc2)NC1=O` [Compound 1334] ({CH2CO}-FYDWL[Bip]V[Orn][dL]N[Cha]VSCG-NH2; thioether N-14) it was 26.9 nM.
Take `Cc1cccc(C[C@@H]2NC(=O)[C@H](CC(=O)O)NC(=O)[C@H](Cc3ccc(O)cc3)NC(=O)[C@H](CC(N)=O)NC(=O)CSC[C@@H](C(=O)N[C@@H](C)C(N)=O)NC(=O)[C@H]([C@@H](C)O)NC(=O)[C@H](C(C)C)NC(=O)[C@H](CC3CCCCC3)NC(=O)[C@H](CCN)NC(=O)[C@@H](CC(C)C)NC(=O)[C@H](CCCN)NC(=O)[C@H](CCCNC(N)=O)NC(=O)[C@H](Cc3ccc(-c4ccccc4)cc3)NC(=O)[C@H](CC(C)C)NC2=O)c1` [Compound 1306] ({CH2CO}-NYD[Phe(3-Me)]L[Bip][Cit][Orn][dL][Dab][Cha]VTCA-NH2; thioether N-14): the concentration for half-maximal inhibition (IC50) under setting [1] stood at 14.6 nM.
On the same count and under the same terms, for `C#CC[C@H](NC(=O)[C@H](C)NC(=O)[C@@H]1CSCC(=O)N[C@@H](CN)C(=O)N[C@@H](Cc2ccc(OCC(=O)O)cc2)C(=O)N[C@@H](CC(=O)O)C(=O)N[C@@H](Cc2cccc(C)c2)C(=O)N[C@@H](C(C)C)C(=O)N[C@@H](Cc2ccc(-c3ccccc3)cc2)C(=O)N[C@@H](CCCNC(N)=O)C(=O)N[C@@H](CCCN)C(=O)N[C@H](CC(C)C)C(=O)N[C@@H](CCN)C(=O)N[C@@H](CC2CCCCC2)C(=O)N[C@@H](C(C)C)C(=O)N[C@@H]([C@@H](C)O)C(=O)N1)C(=O)O` [Compound 2262] the value was 63.6 nM; for `CC(C)C[C@@H]1NC(=O)[C@H](CCCCN)NC(=O)[C@@H](CC(C)C)NC(=O)[C@H](CCCN)NC(=O)[C@H](Cc2cnc[nH]2)NC(=O)[C@H](Cc2ccc(-c3ccccc3)cc2)NC(=O)[C@H](C(C)C)NC(=O)[C@H](Cc2c[nH]c3ccccc23)NC(=O)[C@H](CC(=O)O)NC(=O)[C@H](Cc2ccc(O)cc2)NC(=O)[C@H](CC(N)=O)NC(=O)CSC[C@@H](C(=O)NCC(N)=O)NC(=O)[C@H]([C@@H](C)O)NC(=O)[C@H](C(C)C)NC1=O` [Compound 1136] ({CH2CO}-NYDWV[Bip]H[Orn][dL]KLVTCG-NH2; thioether N-14), 50.8 nM.
For `CC(C)C[C@H]1NC(=O)[C@H](CCCN)NC(=O)[C@H](C(C)C)NC(=O)[C@H](Cc2ccc(-c3ccccc3)cc2)NC(=O)[C@H](C(C)C)NC(=O)[C@H](Cc2c[nH]c3ccccc23)NC(=O)[C@H](CC(=O)O)NC(=O)[C@H](Cc2ccc(OCC(=O)O)cc2)NC(=O)[C@H](CN)NC(=O)CSC[C@@H](C(=O)N[C@@H](C)C(N)=O)NC(=O)[C@H]([C@@H](C)O)NC(=O)[C@H](C(C)C)NC(=O)[C@H](CC2CCCCC2)NC(=O)[C@H](CCC(=O)O)NC1=O` [Compound 1522] ({CH2CO}-[Dap]Y(Carboxymethyl)DWV[Bip]V[Orn][dL]E[Cha]VTCA-NH2; thioether N-14), the half-inhibitory concentration (IC50) under setting [1] came out at 23.3 nM.
Turning to `CCCC[C@H]1NC(=O)[C@H](CCCN)NC(=O)[C@H](CCC(=O)O)NC(=O)[C@H](Cc2ccc(-c3ccccc3)cc2)NC(=O)[C@H](C(C)C)NC(=O)[C@H](Cc2c[nH]c3ccccc23)NC(=O)[C@H](CC(=O)O)NC(=O)[C@H](Cc2ccncc2)NC(=O)[C@H](CN)NC(=O)CSC[C@@H](C(=O)N[C@@H](C)C(N)=O)NC(=O)[C@H]([C@@H](C)O)NC(=O)[C@H](C(C)C)NC(=O)[C@H](CC2CCCCC2)NC(=O)[C@H](CCN)NC1=O` [Compound 1452] ({CH2CO}-[Dap][4Pal]DWV[Bip]E[Orn][dNle][Dab][Cha]VTCA-NH2; thioether N-14), under setting [1], the concentration for half-maximal inhibition (IC50) worked out at 25.2 nM.
